“Also recorded” adds a separate entry of the source.
Columns and labels:
human synovial explants = conditions: PCA directly applied; cited from earlier work
[1] = human; cited from earlier work
[2] = test system: human mesenchymal stem cells; conditions: in vitro, dose related; cited from earlier work
TNF-alpha = TNF-alpha in synovial fluid by ELISA, rabbit arthritis model; format: in vivo; conditions: therapeutic groups, oral 4 weeks, vs control; not statistically significant
Source text: (§1) The study was approved by the Institutional Animal Care and Use Committee (IACUC) of Thomas D. Morris, Inc. 28 New Zeeland White rabbits were selected for the study. Six such were randomly assigned to one of four groups; prophylactic cyanidin-3-glycoside (C3G)(referred to figures as Cl 1-42), prophylactic protocatechuic acid (PCA)(referred to in figures as PCA 1-42), therapeutic C3G (referred to in figures as Cl 42-70), and therapeutic PCA (referred to in figures as PCA 42-70). There were four controls, two each to the prophylactic and therapeutic groups.
(§2) The prophylactic groups were given PROC3G™ by Chromadex™ at a dose of 30 mg/kg of body weight of either C3G or PCA by mouth, 7 times per week for 42 days. The therapeutic groups' treatment was initiated on day 42 with a daily dose of PROC3G™ by Chromadex™ 7 times per week for 4 weeks. The dose of 30 mg of cyanidin-3-glucoside per kg of body weight calculates to be 0.177 millimoles per kg body weight. The dose of PCA was the same in terms of millimoles per kg body weight.
(§3) The experimental rabbits underwent surgery with an intent to create a severe degenerative arthritis by cutting the medial collateral ligament, the anterior cruciate ligament and removing the medial meniscus. […]
(§4) Synovial Fluid—Detected by ELISA

lymphocytes = assay: Number of lymphocytes in synovial fluid, rabbit arthritis model; format: in vivo
Source text: as §1, §2
(§5) The experimental rabbits underwent surgery with an intent to create a severe degenerative arthritis by cutting the medial collateral ligament, the anterior cruciate ligament and removing the medial meniscus. A partial thickness laceration was made longitudinally on the lateral femoral condyle for future assessment of potential for repair. The surgery was performed by two licensed veterinarians. One surgeon was very experienced. The other surgeon was a recent graduate.
(§6) At necropsy, the synovial fluid was harvested percutaneously and upon arthrotomy. The synovium was harvested from posterior compartment. The patella and adjacent synovium was procured as a separate specimen as was the medial and lateral condyle.
In addition to testing for the increase or decrease of various factors and cytokines, tests were run to count the number of white blood cells, including polymorphonuclear leukocytes (PMN), macrophages (Mac) and lymphocytes (Lym). […]

[3] = test system: catabolic cytokine environment; assay: Cytokine environment in surgically created arthritic knee; format: in vivo; conditions: rabbits, either oral or intraarticular route
C-reactive protein (CRP) = C-reactive protein (CRP) in plasma after knee surgery; format: in vivo, rabbit
Procedure: C-reactive protein (CRP) is a protein found in the blood plasma, the levels of which rise in response to inflammation (i.e., C-reactive protein is an acute-phase protein). Its physiological role is to bind to phosphocholine expressed on the surface of dead or dying cells (and some types of bacteria) in order to activate the complement system via the C1Q complex. CRP rises within two hours of the onset of inflammation, up to a 50,000-fold, and peaks at 48 hours. […] CRP is thus a screen for inflammation.
Knee surgery was performed to create a severe irreparable degenerative knee joint, which in turn elevated the CRP in the plasma to average of […]. A historical normal amount of CRP is 3.15 micrograms/mL. See Sun H, et al., Am J Pathol. October 2005; 167(4): 1139-1148. Rabbit CRP levels are close to the mean values of healthy middle-aged humans (2.82 mg/L) reported in the literature. See Ockene I S, et al., Clin Chem. 2001; 47:444-450.
The controls in the study were animals that had surgery and received no treatment. The prophylaxis test groups had the surgery and received 6 weeks of oral C-3-G or PCA 7 times per week as described in example 1. The therapeutic treatment group had surgery, received no treatment for 41 days and then at day 42 received oral C-3-G or PCA 7 times per week as described in example 1.

MMP-3 = MMP-3 expression in cartilage, histochemical staining and scoring, rabbit arthritis model; format: in vivo
Source text: as §1, §2, §5, §6
(§7) The synovial fluid and half of the synovium was frozen and sent to BioBoston Laboratory for chemical analysis. The other half of the synovium and bone was sent to McClinchery Histology in Stockbridge, Mich. for histological preparation and staining. Patellar slides were sent to BioBoston Contract Laboratories for histochemical staining and ICRS grading. Sample slides were examined for Lubricin at Myron Spector laboratory.
MMP3 is known as matrix metallopeptidase 3, or stromelysin 1 or progelatinase. Proteins of the matrix metalloproteinase (MMP) family are involved in the breakdown of 20 extracellular matrix in normal physiological processes, such as embryonic development, reproduction, and tissue remodeling, as well as in disease processes, such as arthritis and metastasis. […] See FIG. 2C. • Synovial Tissue (Synovium)—Detected by ELISA • MMP-3 levels were reduced in all four groups. See FIG. 9B. • Synovial Tissue (Synovium)—Gene Expression Level Detected by Real-Time PCR • MMP-3 gene expression was decreased in all groups. See FIG. 13A. • Histochemical Scoring Analysis

lubricin [4] = assay: Lubricin in synovium by ELISA, rabbit arthritis model; format: in vivo; conditions: prophylactic groups, oral days 1-42, vs control
Source text: as §1, §2, §5, §6
(§8) The synovial fluid and half of the synovium was frozen and sent to BioBoston Laboratory for chemical analysis. The other half of the synovium and bone was sent to McClinchery Histology in Stockbridge, Mich. for histological preparation and staining. […]
(§9) Synovial Tissue (Synovium)—Detected by ELISA

[5] = test system: patellar articular cartilage; assay: ICRS histological visual scale scoring of patellar cartilage, rabbit arthritis model; format: in vivo; conditions: prophylactic, minimum of 30 mg/kilo gram body weight by oral route
Source text: International Cartilage Repair Society (ICRS) criteria are described for example in Hoemann, et al., (cited on Applicant's IDS), herein incorporated by reference.
as §1, §2, §3

IL-1 beta = IL-1 beta in synovium by ELISA, rabbit arthritis model; format: in vivo; conditions: therapeutic groups, oral days 42-70, vs control
Source text: as §1
(§10) The prophylactic groups were given PROC3G™ by Chromadex™ at a dose of 30 mg/kg of body weight of either C3G or PCA by mouth, 7 times per week for 42 days. The therapeutic groups' treatment was initiated on day 42 with a daily dose of PROC3G™ by Chromadex™ 7 times per week for 4 weeks. The dose of 30 mg of cyanidin-3-glucoside per kg of body weight calculates to be 0.177 millimoles per kg body weight. The dose of PCA was the same in terms of millimoles per kg body weight. […]
Interleukin-1 beta (IL-1p) also known as catabolic, is a cytokine protein. […] Increased production of IL-1B causes a number of different auto-inflammatory syndromes. • Synovial Fluid—Detected by ELISA • Levels of IL-1 beta were decreased in all groups. See FIG. 2A. • Synovial Tissue (Synovium)—Detected by ELISA

IGF-1 = IGF-1 in plasma, rabbit arthritis model; format: in vivo; conditions: for IGF-1 in the plasma: control group 25 PG/ML
Source text: as §1, §2, §5
Blood testing was performed prior to necropsy on C3G, PCA, glucose, MMP-3 and IGF-1 to assess any systemic effects.

ADAMTS-5 = ADAMTS-5 in synovial fluid by ELISA, rabbit arthritis model; format: in vivo; conditions: therapeutic groups, oral days 42-70, vs control
Source text: as §1, §2, §5, §6, §8, §4

MMP3 = MMP3 in synovial fluid by ELISA, rabbit arthritis model; format: in vivo; conditions: therapeutic groups, oral days 42-70, vs control
Source text: as §1, §10
MMP3 is known as matrix metallopeptidase 3, or stromelysin 1 or progelatinase. […] See FIG. 2C. • Synovial Tissue (Synovium)—Detected by ELISA • MMP-3 levels were reduced in all four groups. See FIG. 9B. • Synovial Tissue (Synovium)—Gene Expression Level Detected by Real-Time PCR • MMP-3 gene expression was decreased in all groups. […]

MMP-13 = MMP-13 in synovium by ELISA, rabbit surgically induced knee arthritis; format: in vivo; conditions: vs untreated control, not statistically significant
Source text: as §1, §2, §5, §6, §7, §9

IGF-1 gene expression = IGF-1 gene expression in synovium by real-time PCR, rabbit arthritis model; format: in vivo; conditions: rabbits, either oral or intraarticular route
Source text: as §1, §10
See FIG. 5B. • Synovial Tissue (Synovium)-Detected by ELISA • IGF-1 was increased in all groups. See FIG. 8B. • Synovial Tissue (Synovium)-Gene Expression Level Detected by Real-Time PCR • IGF-1 was increased in all groups.

human osteoblasts = conditions: in vitro, dose related; cited from earlier work
[6] = more powerful than vitamin E; cited from earlier work
ADAMTS-5 gene expression = ADAMTS-5 gene expression in synovium by real-time PCR, rabbit arthritis model; format: in vivo; conditions: therapeutic groups, oral days 42-70, vs control
Source text: as §1, §2, §3
Synovial Tissue (Synovium)—Gene Expression Level Detected by Real-Time PCR

MRSA and Pseudomonas = conditions: tape-stripped rodent backs contaminated with MRSA and Pseudomonas; cited from earlier work
aggrecan = assay: Aggrecan expression in patellar cartilage, rabbit arthritis model; format: in vivo; conditions: prophylactic, minimum of 30 mg/kilo gram body weight by oral route, compared to the controls
Source text: as §1, §2
as §5, with “The surgery was performed by two licensed veterinarians. One surgeon was very experienced. The other surgeon was a recent graduate.” left out

collagen II = assay: Collagen II expression in cartilage, immunohistochemical staining, rabbit arthritis model; format: in vivo; conditions: prophylactic, minimum of 30 mg/kilo gram body weight by oral route, compared to the controls
Source text: as §1, §2
as §5, with “The surgery was performed by two licensed veterinarians. One surgeon was very experienced. The other surgeon was a recent graduate.” left out

lubricin [7] = assay: Lubricin expression in cartilage, immunohistochemical staining, rabbit arthritis model; format: in vivo; conditions: prophylactic, minimum of 30 mg/kilo gram body weight by oral route, compared to the controls
Source text: as §1, §2
as §5, with “The surgery was performed by two licensed veterinarians. One surgeon was very experienced. The other surgeon was a recent graduate.” left out

[8] = prophylactic groups, oral days 1-42, vs control
[9] = therapeutic groups, oral days 42-70, vs control
[10] = prophylactic groups, oral days 1-42
[11] = therapeutic groups, oral days 42-70

For O=C(O)c1ccc(O)c(O)c1 [PCA, Protocatechuic acid (3,4-dihydroxybenzoic acid)], the “IGF-1 in human synovial explants” value (human synovial explants) is listed as “increased”, the toxicity [1] is listed as “non-toxic; also recorded: no known human toxic effects” and the “bone making markers in human mesenchymal stem cells” value [2] is listed as “produce bone making markers”. The “TNF-alpha levels in synovial fluid” value (TNF-alpha) was “slight increase”, the “number of lymphocytes in synovial fluid” value (lymphocytes; [8]) was “decreased” and the “number of lymphocytes in synovial fluid” value (lymphocytes; [9]) was “decreased”. The “catabolic cytokine environment in a surgically created arthritic knee” value [3] was “reversing”, the “CRP, an indicator of inflammation” value (C-reactive protein (CRP); given by oral route immediately after injury) was “kept to normal levels” and the “plasma CRP level” value (C-reactive protein (CRP); prophylaxis test group, 6 weeks oral treatment from surgery, untreated control at 42 days 8.8 mg/mL) was 3.6 micrograms/mL. The “plasma CRP level” value (C-reactive protein (CRP); therapeutic group, no treatment for 6 weeks after surgery, then 4 weeks oral treatment) was 43 mg/mL, the “histochemical staining for the presence of MMP-3 in cartilage” value (MMP-3; [10]) was “no staining” and the “MMP-3 expression in cartilage” value (MMP-3; [8]) was “reduced”. The “histochemical staining for the presence of MMP-3 in cartilage” value (MMP-3; [11]) was “no staining”, the “MMP-3 expression in cartilage” value (MMP-3; [9]) was “reduced” and the lubricin in synovium (lubricin [4]) was “increased”. The articular cartilage cells ([5]; compared to the controls) was “unchanged in nature and spacing”, the subchondral bone structure ([5]; without sclerosis or osteophyte formation) was “remained normal in structure” and the “levels of IL-1 beta in synovium” value (IL-1 beta) was “decreased”. For the same compound, the “IGF-1 in the plasma, change vs control” value (IGF-1; prophylactic group, oral days 1-42, only group with an increase) was “increased”, the “IGF-1 in the plasma” value (IGF-1; [10]) was 43.0 pg/mL and the “IGF-1 in the plasma” value (IGF-1; [11]) was 29.0 pg/mL. The “ADAMTS-5 in synovial fluid” value (ADAMTS-5) was “decreased”, the “MMP3 in synovial fluid” value (MMP3) was “decreased” and the “MMP-13 levels in synovium” value (MMP-13; prophylactic groups, oral 7 times per week days 1-42 (C3G 30 mg/kg, PCA 26.4 mg/kg)) was “very slightly decreased”. The “MMP-13 levels in synovium” value (MMP-13; therapeutic groups, oral 7 times per week days 42-70 (C3G 30 mg/kg, PCA 26.4 mg/kg)) was “increased slightly”, the “IGF-1 genetic expression in the synovium” value (IGF-1 gene expression) was “increase” and the “bone making markers in human osteoblasts” value (human osteoblasts) was “produce bone making markers”. The “antioxidant power relative to vitamin E” value [6] was 10 ×, the “ADAMTS-5 gene expression in synovium” value (ADAMTS-5 gene expression) was “decreased” and the “collagen layer in the dermis” value (MRSA and Pseudomonas) was “production of collagen layer in the dermis”. The “re-epithelialization of the skin wound” value (MRSA and Pseudomonas) was “re-epithelialization of the wound”, the “time to disinfect the wound” value (MRSA and Pseudomonas) was 2 days and the “aggrecan in articular cartilage ECM” value (aggrecan) was “increased”. For the same compound, the “type II collagen in articular cartilage ECM” value (collagen II) was “increased” and the “lubricin on the articular cartilage surface” value (lubricin [7]) was “increased”.

Reference: patent US11925656B2, “Biological total joint replacement” (priority 2014, dated 2024)
